{"source": "patent US8530413B2", "about": "“Heterocyclically substituted methoxyphenyl derivatives with an oxo group, processes for preparation thereof and use thereof as medicaments” (Sanofi, priority 2010, dated 2013)"}
{"target": "T1, GPCR GPR40 (Rattus norvegicus, UniProt Q8K3T4)", "T1 construct": "expressed in transfected cells; host or cells: HEK293", "T1 sequence (Q8K3T4 whole entry)": "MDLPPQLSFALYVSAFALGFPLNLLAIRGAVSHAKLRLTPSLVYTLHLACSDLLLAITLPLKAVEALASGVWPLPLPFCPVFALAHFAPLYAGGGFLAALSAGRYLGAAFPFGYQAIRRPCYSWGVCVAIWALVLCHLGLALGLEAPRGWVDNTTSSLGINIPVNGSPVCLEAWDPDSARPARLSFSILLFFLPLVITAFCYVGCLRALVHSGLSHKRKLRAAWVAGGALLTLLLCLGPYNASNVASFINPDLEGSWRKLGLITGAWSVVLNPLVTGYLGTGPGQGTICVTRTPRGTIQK", "experiment": "In vitro FLIPR assay with recombinant cells which express the GPCR GPR40 (intracellular Ca2+)", "assay_type": "cell-based", "settings": "recombinant HEK293 cells expressing GPR40; Fluo-4 Ca2+ change; 100% = 10 μM linoleic acid", "procedure": "In Vitro FLIPR Assay with Recombinant Cells which Express the GPCR GPR40\nFunction-testing assays were performed by means of the FLIPR technique (“Fluorescence Imaging Plate Reader”, Molecular Devices Corp.). For this purpose, agonist-induced changes were determined in the intracellular concentration of Ca^2+ in recombinant HEK293 cells which expressed the GPCR GPR40.\nFor the studies, cells were sown into 96-well microtiter plates (60 000 cells/well) and left to grow overnight. The medium was removed and the cells were incubated in buffer which contains the fluorescent dye Fluo-4. After this loading with dye, the cells were washed, test substance was added and changes were measured in the intracellular Ca^2+ concentration in the FLIPR instrument. Results were presented as the percentage change relative to the control (0%: no test substance added; 100%: 10 μM reference agonist linoleic acid added) and used to calculate dose/effect curves, and EC50 values were determined.", "units": {"EC50": "nM"}}
{"smiles": "CC#CC(CC(=O)O)c1ccc(OCN2C(=O)C(C)(C)Oc3ccccc32)cc1", "note": "(stereo not drawn) [Example 8, 3-[4-(2,2-Dimethyl-3-oxo-2,3-dihydrobenzo[1,4]oxazin-4-ylmethoxy)phenyl]hex-4-ynoic acid]", "EC50": 60}
{"smiles": "CC#CC(CC(=O)O)c1ccc(OCN2C(=O)C(C)(C)Oc3cc(Br)ccc32)cc1", "note": "(stereo not drawn) [Example 4, 3-[4-(7-Bromo-2,2-dimethyl-3-oxo-2,3-dihydrobenzo[1,4]oxazin-4-ylmethoxy)phenyl]hex-4-ynoic acid]", "EC50": 280}
{"smiles": "CC#CC(CC(=O)O)c1ccc(OCN2C(=O)CC(C)(C)c3cc(Br)ccc32)cc1", "note": "(stereo not drawn) [Example 6, 3-[4-(6-Bromo-4,4-dimethyl-2-oxo-3,4-dihydro-2H-quinolin-1-ylmethoxy)phenyl]hex-4-ynoic acid]", "EC50": 440}
{"smiles": "CC#CC(CC(=O)O)c1ccc(OCn2c(=O)sc3ccccc32)cc1", "note": "(stereo not drawn) [Example 7, 3-[4-(2-Oxobenzothiazol-3-ylmethoxy)phenyl]hex-4-ynoic acid]", "EC50": 50}
{"smiles": "CC#CC(CC(=O)O)c1ccc(OCN2C(=O)C(CC)(CC)c3cc(Br)ccc32)cc1", "note": "(stereo not drawn) [Example 5, 3-[4-(5-Bromo-3,3-diethyl-2-oxo-2,3-dihydroindol-1-ylmethoxy)phenyl]hex-4-ynoic acid]", "EC50": 180}
{"smiles": "CC#CC(CC(=O)O)c1ccc(OCN2C(=O)C(C)(C)Oc3cccnc32)cc1", "note": "(stereo not drawn) [Example 9]", "EC50": 350}
{"smiles": "CC#CC(CC(=O)O)c1ccc(OCN2C(=O)C(C)(C)c3ccc(Br)cc32)cc1", "note": "(stereo not drawn) [Example 2, 3-[4-(6-Bromo-3,3-dimethyl-2-oxo-2,3-dihydro-indol-1-ylmethoxy)phenyl]hex-4-ynoic acid]", "EC50": 4610}
{"smiles": "CC#CC(CC(=O)O)c1ccc(OCN2C(=O)C(C)(C)c3cc(Br)ccc32)cc1", "note": "(stereo not drawn) [Example 1, 3-[4-(5-Bromo-3,3-dimethyl-2-oxo-2,3-dihydroindol-1-ylmethoxy)phenyl]hex-4-ynoic acid]", "EC50": 110}
{"smiles": "CC#CC(CC(=O)O)c1ccc(OCN2C(=O)C(C)(C)c3cc(C(F)(F)F)ccc32)cc1", "note": "(stereo not drawn) [Example 3, 3-[4-(3,3-Dimethyl-2-oxo-5-trifluoromethyl-2,3-dihydroindol-1-ylmethoxy)phenyl]hex-4-ynoic acid]", "EC50": 130}
